Assay results: US6818203B2, “Use of perfluoroalkyl-containing metal complexes as contrast media in MR-imaging for visualization of plaque, tumors and necroses” (Schering Aktiengesellschaft, priority 2000, dated 2004)

Test: organ distribution (including tumor and lymph node concentration) after intravenous administration in prostate cancer-bearing rats
Format: in vivo
Conditions: 200 μmol Gd/kg i.v.
Protocol: After intravenous administration of 200 μmol of total gadolinium/kg of body weight of a polar Gd-chelate with perfluorinated side chains (metal complex XIV) in rats (Cop-inbreeding with Dunning R3327 MAT-Lu prostate cancer i.m.-implanted 12 days earlier), the metal content in various organs, in tumors, as well as in the lymph nodes (pooled as mesenteric and peripheral lymph nodes) was determined 10 minutes, 1 hour and 24 hours after administration (MW±SD, n=3).

[1] = Mesentric lymph nodes, 10 min p.i.

CC(C(=O)NCC(=O)NCC(=O)N1CCN(C(=O)CNC(=O)CNC(=O)C(C)N2CCN(CC(=O)[O-])CCN(CC(=O)[O-])CCN(CC(=O)[O-])CC2)CCN(C(=O)COCCC(F)(F)C(F)(F)C(F)(F)C(F)(F)C(F)(F)C(F)(F)C(F)(F)C(F)(F)F)CCN(C(=O)CNC(=O)CNC(=O)C(C)N2CCN(CC(=O)[O-])CCN(CC(=O)[O-])CCN(CC(=O)[O-])CC2)CC1)N1CCN(CC(=O)[O-])CCN(CC(=O)[O-])CCN(CC(=O)[O-])CC1.[Gd+3].[Gd+3].[Gd+3] (stereo not drawn) [metal complex XIV, 1,4,7-Tris{1,4,7-tris(N-(carboxylatomethyl)-10-[N-1-methyl-3,6-diaza-2,5,8-trioxooctane-1,8-diyl]-1,4,7,10-tetraazacyclododecane, Gdcomplex}-10-N-2H,2H,4H,4H,5H,5H-3-oxa-perfluoro-tridecanoyl]-1,4,7,10-tetraazacyclo-dodecane, Gd complex]
% Dose (Balance (without blood values), 24 h p.i.): 95.07 ± 2.41 % Dose
% Dose (Blood (58 ml of blood/kg of body weight), 10 min p.i.): 26.73 ± 0.84 % Dose
% Dose (Blood (58 ml of blood/kg of body weight), 1 h p.i.): 16.13 ± 1.77 % Dose
% Dose (Blood (58 ml of blood/kg of body weight), 24 h p.i.): 0.61 ± 0.03 % Dose
Gd concentration (Blood, 10 min p.i.): 957 ± 38 µmol/L
Gd concentration (Blood, 1 h p.i.): 575 ± 56 µmol/L
Gd concentration (Blood, 24 h p.i.): 22 ± 1 µmol/L
% Dose (Brain, 10 min p.i.): 0.10 ± 0.03 % Dose
Gd concentration (Brain, 10 min p.i.): 38 ± 6 µmol/L
% Dose (Brain, 1 h p.i.): 0.06 ± 0.00 % Dose
Gd concentration (Brain, 1 h p.i.): 22 ± 2 µmol/L
% Dose (Brain, 24 h p.i.): 0.01 ± 0.01 % Dose
Gd concentration (Brain, 24 h p.i.): 4 ± 4 µmol/L
% Dose (Feces 0-24 h): 6.00 ± 4.91 % Dose
Gd concentration (Feces 0-24 h): 781 ± 611 µmol/L
% Dose (Femur, 10 min p.i.): 0.39 ± 0.02 % Dose
Gd concentration (Femur, 10 min p.i.): 115 ± 3 µmol/L
% Dose (Femur, 1 h p.i.): 0.28 ± 0.03 % Dose
Gd concentration (Femur, 1 h p.i.): 81 ± 10 µmol/L
% Dose (Femur, 24 h p.i.): 0.03 ± 0.00 % Dose
Gd concentration (Femur, 24 h p.i.): 9 ± 1 µmol/L
% Dose (Heart, 10 min p.i.): 0.32 ± 0.01 % Dose
Gd concentration (Heart, 10 min p.i.): 320 ± 8 µmol/L
% Dose (Heart, 1 h p.i.): 0.19 ± 0.01 % Dose
Gd concentration (Heart, 1 h p.i.): 190 ± 15 µmol/L
% Dose (Heart, 24 h p.i.): 0.02 ± 0.00 % Dose
Gd concentration (Heart, 24 h p.i.): 19 ± 0 µmol/L
% Dose (Intestine (empty), 10 min p.i.): 1.55 ± 0.09 % Dose
Gd concentration (Intestine (empty), 10 min p.i.): 242 ± 15 µmol/L
% Dose (Intestine (empty), 1 h p.i.): 1.16 ± 0.22 % Dose
Gd concentration (Intestine (empty), 1 h p.i.): 201 ± 32 µmol/L
% Dose (Intestine (empty), 24 h p.i.): 0.26 ± 0.04 % Dose
Gd concentration (Intestine (empty), 24 h p.i.): 36 ± 5 µmol/L
% Dose (Kidney, 10 min p.i.): 1.76 ± 0.14 % Dose
Gd concentration (Kidney, 10 min p.i.): 761 ± 60 µmol/L
% Dose (Kidney, 1 h p.i.): 2.84 ± 0.61 % Dose
Gd concentration (Kidney, 1 h p.i.): 1181 ± 232 µmol/L
% Dose (Kidney, 24 h p.i.): 0.81 ± 0.09 % Dose
Gd concentration (Kidney, 24 h p.i.): 338 ± 49 µmol/L
% Dose (Liver, 10 min p.i.): 2.62 ± 0.11 % Dose
Gd concentration (Liver, 10 min p.i.): 192 ± 12 µmol/L
% Dose (Liver, 1 h p.i.): 2.04 ± 0.15 % Dose
Gd concentration (Liver, 1 h p.i.): 147 ± 7 µmol/L
% Dose (Liver, 24 h p.i.): 0.96 ± 0.05 % Dose
Gd concentration (Liver, 24 h p.i.): 64 ± 4 µmol/L
% Dose (Lung, 10 min p.i.): 1.04 ± 0.02 % Dose
Gd concentration (Lung, 10 min p.i.): 603 ± 30 µmol/L
% Dose (Lung, 1 h p.i.): 0.80 ± 0.06 % Dose
Gd concentration (Lung, 1 h p.i.): 415 ± 39 µmol/L
% Dose (Lung, 24 h p.i.): 0.09 ± 0.01 % Dose
Gd concentration (Lung, 24 h p.i.): 44 ± 4 µmol/L
% Dose [1]: 0.08 ± 0.01 % Dose
Gd concentration [1]: 291 ± 29 µmol/L
% Dose (Mesentric lymph nodes, 1 h p.i.): 0.05 ± 0.01 % Dose
